Measurements taken from patent US20250339531A1, “DUX4 POLYPEPTIDES AND NUCLEIC ACIDS FOR TREATING INFLAMMATORY AND AUTOIMMUNE CONDITIONS” (Fred Hutchinson Cancer Center, priority 2021, published 2025).
“Also recorded” adds a separate entry of the source.

Columns and labels:
Format in all cases: cell-based, human
[1] = system: HLA-A, HLA-B, HLA-C, PSMB8, PSMB9, PSMB10 mRNA nuclear export; assay: Subcellular fractionation of nuclear and cytoplasmic mRNAs and proteins; conditions: DUX4 pulse, IFNG, 44 hours, data not shown
Experimental: MB135iDUX4 myoblasts were pulsed with doxycycline for 4 hours, incubated for 24 hours, supplemented with 50 ng/mL IFNG for 16 hours, and harvested at a terminal time point of 44 hours. Samples divided for whole-cell lysate (WCL) and subcellular fractionation were suspended in 300 μL ice-cold Cyto-lysis buffer (10 mM Tris pH 7.4, 10 mM NaCl, 0.2% NP-40, 1 mM DTT in nuclease free water). Subcellular fractionation samples were centrifuged at 650 RCF to pellet nuclei while cytoplasmic lysate remained in the supernatant. WCL, cytoplasmic, nuclear RNA and protein were harvested for RT-qPCR and immunoblotting, respectively.

[2] = system: IFIH1, DDX58, cGAS and Type-1 IFN pathways; assay: ISG induction by IFNβ, poly(I:C), RIG-I ligand or cGAMP, RT-qPCR in MB135-iDUX4 cells; conditions: MB135iDUX4 cells ± doxycycline
Experimental: All myoblast experiments were conducted in immortalized MB135 or MB200 myoblast cell lines (isolated from a control or FSHD2 subject, respectively cultured in Ham's F-10 Nutrient Mix (Gibco) supplemented with 15% fetal bovine serum (Hyclone), 100 U/100 μg/ml penicillin/streptomycin (Gibco), 1 μM dexamethasone (Sigma), and 10 ng/ml recombinant human basic fibroblast growth factor (PeproTech). To differentiate the myoblasts to myotubes, media was changed to DMEM supplemented with 10 μg/ml insulin (Sigma) and 10 μg/ml transferrin (Sigma). Cell lines containing doxycycline-inducible transgenes were additionally cultured with 2 μg/mL puromycin (Sigma). Transgenes were induced with 1 μg/mL of doxycycline (Sigma) for 4 hours prior to other treatments for a total of 20 hrs. The Kitra-SRS cells (RRID:CVCL_YI69) were provided by Dr. H. Otani and Osaka University (Nakai et al., 2019) and were cultured in DMEM supplemented with 10% fetal bovine serum (Hyclone) and 100 U/100 μg/ml penicillin/streptomycin (Gibco). Biological replicates consisted of independent but parallel experiments, such as simultaneously stimulating three cell culture plates with IFNγ. Technical replicates consisted of repeat measurements of the same biological sample, such as loading the same biological sample in triplicate for analysis by RT-qPCR. […]

[3] = system: MHC class I proteins (HLA-A/B/C); assay: Immunoblot of IFNG-induced MHC class I protein, continuous or pulsed protocol, MB135 myoblasts; conditions: 4 h doxycycline pulse, IFNG 28, 52 or 76 h later
[4] = system: immunoproteasome subunits PSMB8, PSMB9, and PSMB10; assay: Immunoblot of IFNG-induced immunoproteasome subunits; conditions: for suppression of IFNG-induced immunoproteasome subunit protein, pulsed protocol / suppression of IFNG-induced immunoproteasome subunit protein, continuous protocol: MB135 cells; for suppression of IFNG-induced immunoproteasome subunit protein, pulsed protocol: 4 h doxycycline pulse, later IFNG 16 h; for suppression of IFNG-induced immunoproteasome subunit protein, continuous protocol: doxycycline 20 h, IFNG last 16 h
Experimental: In the “continuous” protocol (similar to the experiments shown in the prior FIGS. 1, 2, 4, 5, and 6), doxycycline is added to induce DUX4 expression at time 0 and four hours later IFNG is added for an additional 16 hours, resulting in 20 hours of continuous DUX4 induction with the last 16 hrs exposed to IFNG.
In the “pulsed” protocol, doxycycline is added at time 0 to induce DUX4 expression, but after four hours the media is changed to remove the doxycycline, resulting in a pulse of DUX4 mRNA and protein sufficient to induce DUX4 target gene expression (see Resnick et al., Cell Rep. 2019 Nov. 12; 29(7):1812-1820.e5). IFNG is added at 28 hours for a period of 16 hours prior to harvesting the cells. […] This difference is not likely to be due to different amounts of the DUX4 and mutant DUX4 proteins because at the time of harvest both DUX4 and the F67A mutant DUX4 protein levels have declined to similarly low amounts relative to the continuous protocol, but could be due to the activation of DUX4 target genes by the full-length DUX4 since the H3.X/Y proteins show persistent expression in the pulsed protocol.
(§1) Protein samples were harvested in RIPA buffer [150 mM NaCl, 1% NP-40, 0.5% Na-deocycholate, 1% SDS, 25 mM Tris-HCl pH7.4] supplemented with protease and phosphatase inhibitor tablets (Pierce), followed by sonication in Diagenode Bioruptor. Lysate was cleared by centrifugation at 16000×g and quantified using a Pierce BCA assay (Thermo Fisher Scientific). Samples were run on NuPAGE precast polyacrylamide gels (Invitrogen) and transferred to PVDF membrane. Membranes were blocked in PBS containing 0.1% Tween-20 and 5% non-fat dry milk before overnight incubation at 4° C. with primary antibodies (see resource table for a list of antibodies used in this study). Membranes were incubated with horseradish peroxidase-conjugated secondary antibodies for 1 hour at room temperature and SuperSignal chemiluminescent substrate (Thermo Scientific) was used for detection on film with a Mini-medical 90 processor. Membranes were stripped with Restore Western Blot Stripping Buffer (Pierce).

[5] = system: eIF2-alpha, RPS6, 4EBP1, eIF4E, eEF2; assay: Immunoblot of translational regulators; conditions: MB135 myoblasts, 4-hour pulse of doxycycline
Experimental: as §1

## DUX4: human DUX4 protein SEQ ID NO:3 expressed from doxycycline inducible codon altered transgene SEQ ID NO:2
[1]
  mRNA nuclear export and protein localization to the cytoplasm: did not disrupt
[2]
  suppression of ISG induction by innate immune stimuli (poly(I:C), short dsRNA/RIG-I ligand, cGAMP, IFNβ): blunted the induction of these genes by each of the stimulated pathways; also recorded: substantially blunted the ISG induction to all treatments; also recorded: pathways that rely on IRFs and STATs are both blocked; also recorded: suppressed the induction of a subset of the panel of ISG genes induced by each ligand; also recorded: CXCL9 was induced by IFNβ, poly(I:C), and the RIG-I ligand but not suppressed by DUX4
[3]
  duration of MHC class I protein suppression after a pulse: at Least Four Days; also recorded: becomes more pronounced between 24 and 72 hours after a pulse of DUX4; also recorded: for nearly four days; also recorded: suppressed MHC class I even four days later; also recorded: persists days after a DUX4 pulse
[4]
  suppression of IFNG-induced immunoproteasome subunit protein, pulsed protocol: completely blocked; also recorded: elicited the same degree of suppression when assayed forty-four hours later; also recorded: completely block protein accumulation of PSMB9 and PSMB10
  suppression of IFNG-induced immunoproteasome subunit protein, continuous protocol: completely blocked; also recorded: IFNG-induction of MHC-I and the immunoproteasome was suppressed; also recorded: completely block protein accumulation of PSMB9 and PSMB10
[4]; listed as wildtype DUX4
  suppression of IFNG-induced immunoproteasome subunit protein, pulsed protocol: suppressed MHC-I and immunoproteasome subunits
  suppression of IFNG-induced immunoproteasome subunit protein, continuous protocol: suppressed IFNG-induced MHC-I and the immunoproteasome expression
[4]; MB135iDUX4 WT and PKR-KO cells, continuous or pulsed
  suppression of PSMB9 in PKR knockout background: evident in both wild-type (WT) and PKR-KO cells
[5]
  status of translational regulators after a pulse of transgene: sufficient to induce phosphorylation of eIF2-alpha; also recorded: brief reduction in phosphorylation of ribosomal protein S6 (RPS6); also recorded: prolonged dephosphorylation of 4EBP1 and a correlated loss of phosphorylated eukaryotic initiation factor 4E (eIF4E); also recorded: increased phosphorylation of eukaryotic elongation factor 2 (eEF2) on threonine 56; also recorded: enhanced phosphorylation of eEF2 at Thr56 and reduced phosphorylation of eIF4E at Ser209
